According to the kinase profiling compilation of Christmann-Franck et al. (2016):

How the values were obtained:
Assay in all cases: radiometric filter-binding kinase assay
SIK2 (human) = SIK2 (human) (UniProt Q9H0K1)
ZAP70 (human) = ZAP70 (human) (UniProt P43403)
PIM1 (human) = PIM1 (human) (UniProt P11309)
PAK7 (human) = PAK7 (human) (UniProt Q9P286); details: compound 1.0 µM
CLK2 (human) = CLK2 (human) (UniProt P49760)
PIM3 (human) = PIM3 (human) (UniProt Q86V86)
BRSK1 (human) = BRSK1 (human) (UniProt Q8TDC3)
ULK1 (human) = ULK1 (human) (UniProt O75385)
EPHA4 (human) = EPHA4 (human) (UniProt P54764)
AURKA (human) = AURKA (human) (UniProt O14965)
CDK2 CCNA2 (human) = CDK2 CCNA2 (human) (UniProt P20248+P24941)
TTBK1 (human) = TTBK1 (human) (UniProt Q5TCY1)
IKBKB (human) = IKBKB (human) (UniProt O14920); details: compound 1.0 µM
EPHB4 (human) = EPHB4 (human) (UniProt P54760)
MARK4 (human) = MARK4 (human) (UniProt Q96L34)
MAPK13 (human) = MAPK13 (human) (UniProt O15264)
BTK (human) = BTK (human) (UniProt Q06187)
PRKACA (human) = PRKACA (human) (UniProt P17612)
WNK1 (human) = WNK1 (human) (UniProt Q9H4A3)
ABL1 (human) = ABL1 (human) (UniProt P00519)
RPS6KA3 KD1 KD2 (human) = RPS6KA3 KD1 KD2 (human) (UniProt P51812)
PIM2 (human) = PIM2 (human) (UniProt Q9P1W9)
FLT1 (human) = FLT1 (human) (UniProt P17948); details: compound 1.0 µM
EPHB3 (human) = EPHB3 (human) (UniProt P54753); details: compound 10.0 µM
TEK (human) = TEK (human) (UniProt Q02763)
HIPK1 (human) = HIPK1 (human) (UniProt Q86Z02)
STK3 (human) = STK3 (human) (UniProt Q13188)
MAPK8 (human) = MAPK8 (human) (UniProt P45983)
TBK1 (human) = TBK1 (human) (UniProt Q9UHD2)
[1] = system: AKT1 (human), P31749 [S473D]
MAP4K3 (human) = MAP4K3 (human) (UniProt Q8IVH8); details: compound 1.0 µM
NTRK1 (human) = NTRK1 (human) (UniProt P04629); details: compound 10.0 µM
PDPK1 (human) = PDPK1 (human) (UniProt O15530); details: compound 1.0 µM

STK3 (human), sequence (Q13188 whole entry, looked up): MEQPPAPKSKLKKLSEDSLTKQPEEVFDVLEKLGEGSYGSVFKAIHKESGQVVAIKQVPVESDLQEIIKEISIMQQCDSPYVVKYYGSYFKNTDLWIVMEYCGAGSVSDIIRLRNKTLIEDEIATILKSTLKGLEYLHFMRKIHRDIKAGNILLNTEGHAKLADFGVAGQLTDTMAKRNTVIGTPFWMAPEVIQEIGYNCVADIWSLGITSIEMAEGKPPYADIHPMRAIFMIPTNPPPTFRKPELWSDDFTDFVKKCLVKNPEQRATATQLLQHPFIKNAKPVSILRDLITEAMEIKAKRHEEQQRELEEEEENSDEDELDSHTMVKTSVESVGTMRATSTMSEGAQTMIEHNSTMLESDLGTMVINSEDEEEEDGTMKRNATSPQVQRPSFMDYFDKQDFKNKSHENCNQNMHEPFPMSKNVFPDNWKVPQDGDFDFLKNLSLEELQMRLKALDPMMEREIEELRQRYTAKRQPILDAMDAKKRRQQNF
AURKA (human), sequence (O14965 whole entry, looked up): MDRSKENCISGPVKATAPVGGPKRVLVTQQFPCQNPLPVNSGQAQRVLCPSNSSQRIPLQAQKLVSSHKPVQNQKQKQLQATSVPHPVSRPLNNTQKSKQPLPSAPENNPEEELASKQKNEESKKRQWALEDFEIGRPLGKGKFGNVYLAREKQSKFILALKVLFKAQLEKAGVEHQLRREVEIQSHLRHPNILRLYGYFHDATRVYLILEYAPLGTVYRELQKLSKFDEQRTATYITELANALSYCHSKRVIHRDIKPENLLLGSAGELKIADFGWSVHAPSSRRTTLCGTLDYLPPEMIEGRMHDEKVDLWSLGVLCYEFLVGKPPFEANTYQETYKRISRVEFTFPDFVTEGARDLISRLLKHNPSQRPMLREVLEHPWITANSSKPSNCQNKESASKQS
TTBK1 (human), sequence (Q5TCY1 whole entry, looked up): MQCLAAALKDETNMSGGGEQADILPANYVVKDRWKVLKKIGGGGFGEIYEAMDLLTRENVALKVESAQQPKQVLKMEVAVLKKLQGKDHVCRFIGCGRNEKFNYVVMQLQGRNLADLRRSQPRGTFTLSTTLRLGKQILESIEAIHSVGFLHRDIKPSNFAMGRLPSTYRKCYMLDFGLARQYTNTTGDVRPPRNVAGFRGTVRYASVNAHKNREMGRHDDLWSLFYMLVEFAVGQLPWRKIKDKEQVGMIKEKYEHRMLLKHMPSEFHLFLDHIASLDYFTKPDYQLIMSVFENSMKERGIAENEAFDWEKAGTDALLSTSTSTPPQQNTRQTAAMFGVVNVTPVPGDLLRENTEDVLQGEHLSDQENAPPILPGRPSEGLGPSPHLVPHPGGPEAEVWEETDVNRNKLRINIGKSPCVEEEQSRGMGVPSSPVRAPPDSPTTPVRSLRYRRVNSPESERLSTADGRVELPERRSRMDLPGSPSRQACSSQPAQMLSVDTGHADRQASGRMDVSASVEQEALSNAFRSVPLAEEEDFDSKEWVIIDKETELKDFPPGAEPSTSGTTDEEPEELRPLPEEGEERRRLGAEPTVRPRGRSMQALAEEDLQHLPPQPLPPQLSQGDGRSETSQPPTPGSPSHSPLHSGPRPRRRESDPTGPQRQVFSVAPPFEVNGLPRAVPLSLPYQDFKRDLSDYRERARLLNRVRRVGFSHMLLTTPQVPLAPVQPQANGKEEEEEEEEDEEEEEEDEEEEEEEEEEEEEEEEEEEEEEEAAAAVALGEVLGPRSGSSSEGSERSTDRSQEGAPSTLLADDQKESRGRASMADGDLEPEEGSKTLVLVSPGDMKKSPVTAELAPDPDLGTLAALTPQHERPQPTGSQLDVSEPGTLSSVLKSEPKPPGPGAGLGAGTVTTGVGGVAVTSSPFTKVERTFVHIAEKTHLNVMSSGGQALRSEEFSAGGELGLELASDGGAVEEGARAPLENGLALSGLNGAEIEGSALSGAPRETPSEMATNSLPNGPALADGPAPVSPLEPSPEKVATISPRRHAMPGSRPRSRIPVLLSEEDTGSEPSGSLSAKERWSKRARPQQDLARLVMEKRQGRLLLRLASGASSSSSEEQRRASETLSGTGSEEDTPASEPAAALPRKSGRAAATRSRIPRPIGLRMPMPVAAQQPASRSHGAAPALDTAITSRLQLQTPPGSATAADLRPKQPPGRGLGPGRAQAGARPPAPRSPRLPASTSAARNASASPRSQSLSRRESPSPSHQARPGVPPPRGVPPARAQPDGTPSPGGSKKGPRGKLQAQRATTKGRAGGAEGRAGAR
ZAP70 (human), sequence (P43403 whole entry, looked up): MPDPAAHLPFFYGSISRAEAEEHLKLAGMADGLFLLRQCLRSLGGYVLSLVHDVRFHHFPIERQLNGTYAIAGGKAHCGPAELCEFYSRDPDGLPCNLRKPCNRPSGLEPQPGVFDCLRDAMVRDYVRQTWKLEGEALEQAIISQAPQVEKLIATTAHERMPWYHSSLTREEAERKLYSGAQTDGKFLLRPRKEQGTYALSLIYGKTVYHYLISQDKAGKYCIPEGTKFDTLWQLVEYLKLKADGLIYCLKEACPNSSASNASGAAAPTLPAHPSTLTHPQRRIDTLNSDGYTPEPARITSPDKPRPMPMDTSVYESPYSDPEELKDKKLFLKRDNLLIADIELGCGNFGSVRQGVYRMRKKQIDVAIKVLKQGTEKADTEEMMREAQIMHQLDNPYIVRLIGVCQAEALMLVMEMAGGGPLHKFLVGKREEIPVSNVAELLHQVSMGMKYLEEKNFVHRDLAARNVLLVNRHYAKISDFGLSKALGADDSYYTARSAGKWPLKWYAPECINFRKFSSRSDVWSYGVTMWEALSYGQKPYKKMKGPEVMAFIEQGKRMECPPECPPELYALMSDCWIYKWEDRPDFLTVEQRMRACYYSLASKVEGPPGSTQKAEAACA
ULK1 (human), sequence (O75385 whole entry, looked up): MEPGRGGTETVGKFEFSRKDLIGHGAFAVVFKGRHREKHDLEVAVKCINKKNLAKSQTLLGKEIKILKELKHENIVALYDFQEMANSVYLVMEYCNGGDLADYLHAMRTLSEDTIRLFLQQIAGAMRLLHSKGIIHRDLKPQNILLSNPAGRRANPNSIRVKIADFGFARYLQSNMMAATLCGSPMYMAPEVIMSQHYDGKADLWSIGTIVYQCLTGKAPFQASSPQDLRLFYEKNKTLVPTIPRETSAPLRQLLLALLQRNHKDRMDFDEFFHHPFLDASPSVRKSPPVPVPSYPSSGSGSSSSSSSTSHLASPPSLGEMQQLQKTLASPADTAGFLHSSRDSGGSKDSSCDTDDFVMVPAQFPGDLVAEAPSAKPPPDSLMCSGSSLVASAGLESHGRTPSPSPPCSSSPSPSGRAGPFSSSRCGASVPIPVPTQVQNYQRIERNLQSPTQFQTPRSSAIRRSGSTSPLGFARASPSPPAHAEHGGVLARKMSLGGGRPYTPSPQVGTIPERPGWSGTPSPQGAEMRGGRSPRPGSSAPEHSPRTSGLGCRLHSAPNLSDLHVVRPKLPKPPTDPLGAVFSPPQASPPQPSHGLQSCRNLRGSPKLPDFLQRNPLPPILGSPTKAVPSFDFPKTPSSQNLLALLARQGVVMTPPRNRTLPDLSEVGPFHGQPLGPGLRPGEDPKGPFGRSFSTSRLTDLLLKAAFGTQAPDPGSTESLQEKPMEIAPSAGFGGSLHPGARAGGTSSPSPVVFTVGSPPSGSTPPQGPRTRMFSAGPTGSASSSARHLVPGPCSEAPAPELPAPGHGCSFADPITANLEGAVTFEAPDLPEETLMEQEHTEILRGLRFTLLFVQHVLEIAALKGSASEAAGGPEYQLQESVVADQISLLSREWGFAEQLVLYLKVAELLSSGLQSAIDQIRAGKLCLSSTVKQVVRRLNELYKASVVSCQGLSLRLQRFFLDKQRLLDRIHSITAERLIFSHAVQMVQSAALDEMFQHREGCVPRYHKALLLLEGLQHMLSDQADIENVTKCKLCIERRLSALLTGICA
CLK2 (human), sequence (P49760 whole entry, looked up): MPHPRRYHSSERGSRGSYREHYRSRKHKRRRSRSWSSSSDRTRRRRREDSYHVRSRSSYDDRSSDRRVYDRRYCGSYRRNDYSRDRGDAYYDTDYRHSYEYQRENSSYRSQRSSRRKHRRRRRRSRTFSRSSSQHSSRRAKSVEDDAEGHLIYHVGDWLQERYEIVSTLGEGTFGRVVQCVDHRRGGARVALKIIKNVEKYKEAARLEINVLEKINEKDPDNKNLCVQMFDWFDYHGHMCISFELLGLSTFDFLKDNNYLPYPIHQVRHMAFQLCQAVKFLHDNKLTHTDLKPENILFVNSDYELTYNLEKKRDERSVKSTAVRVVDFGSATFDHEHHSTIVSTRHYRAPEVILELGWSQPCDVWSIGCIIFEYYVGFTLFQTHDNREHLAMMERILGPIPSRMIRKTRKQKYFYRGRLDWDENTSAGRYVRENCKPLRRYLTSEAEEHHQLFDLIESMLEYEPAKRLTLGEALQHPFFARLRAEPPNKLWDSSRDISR
PIM2 (human), sequence (Q9P1W9 whole entry, looked up): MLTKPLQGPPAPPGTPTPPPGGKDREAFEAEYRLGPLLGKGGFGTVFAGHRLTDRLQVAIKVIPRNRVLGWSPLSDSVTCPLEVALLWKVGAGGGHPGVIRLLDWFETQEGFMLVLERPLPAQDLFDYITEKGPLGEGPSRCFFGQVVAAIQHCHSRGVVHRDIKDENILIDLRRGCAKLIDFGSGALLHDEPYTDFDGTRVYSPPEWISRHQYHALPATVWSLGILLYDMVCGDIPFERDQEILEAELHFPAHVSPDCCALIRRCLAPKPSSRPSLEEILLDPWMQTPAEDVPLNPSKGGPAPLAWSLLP
PIM1 (human), sequence (P11309 whole entry, looked up): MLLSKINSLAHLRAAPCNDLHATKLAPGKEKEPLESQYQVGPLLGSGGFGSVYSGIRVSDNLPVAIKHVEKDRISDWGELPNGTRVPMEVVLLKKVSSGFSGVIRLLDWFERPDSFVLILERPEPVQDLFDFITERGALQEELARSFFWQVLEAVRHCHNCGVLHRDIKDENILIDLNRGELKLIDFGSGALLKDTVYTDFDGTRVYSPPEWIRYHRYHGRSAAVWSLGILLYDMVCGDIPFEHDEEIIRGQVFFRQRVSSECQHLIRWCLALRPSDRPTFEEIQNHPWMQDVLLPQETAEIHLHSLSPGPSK

Question: With `CNc1nc(Nc2ccc(C(=O)N3CCOCC3)cc2OC)ncc1Cl` as the compound, how does the residual activity (SIK2 (human); compound 1.0 µM) read?
Answer: 49%

Question: What about the residual activity (SIK2 (human); compound 10.0 µM) of the same compound?
Answer: 47%

Question: And the residual activity (ZAP70 (human); compound 1.0 µM)?
Answer: 97%

Question: What about the residual activity (ZAP70 (human); compound 10.0 µM) of the same compound?
Answer: 81%

Question: And the residual activity (PIM1 (human); compound 1.0 µM)?
Answer: 96%

Question: What about the residual activity (PIM1 (human); compound 10.0 µM) of the same compound?
Answer: 99%

Question: What about the residual activity (PAK7 (human)) of the same compound?
Answer: 88%

Question: And the residual activity (CLK2 (human); compound 1.0 µM)?
Answer: 91%

Question: And the residual activity (CLK2 (human); compound 10.0 µM)?
Answer: 76%

Question: What about the residual activity (PIM3 (human); compound 1.0 µM) of the same compound?
Answer: 77%

Question: And the residual activity (PIM3 (human); compound 10.0 µM)?
Answer: 72%

Question: What about the residual activity (BRSK1 (human); compound 1.0 µM) of the same compound?
Answer: 59%

Question: And the residual activity (BRSK1 (human); compound 10.0 µM)?
Answer: 78%

Question: What about the residual activity (ULK1 (human); compound 1.0 µM) of the same compound?
Answer: 62%

Question: What about the residual activity (ULK1 (human); compound 10.0 µM) of the same compound?
Answer: 85%

Question: What about the residual activity (EPHA4 (human); compound 1.0 µM) of the same compound?
Answer: 100%

Question: What about the residual activity (EPHA4 (human); compound 10.0 µM) of the same compound?
Answer: 94%

Question: And the residual activity (AURKA (human); compound 1.0 µM)?
Answer: 56%

Question: And the residual activity (AURKA (human); compound 10.0 µM)?
Answer: 45%

Question: What about the residual activity (CDK2 CCNA2 (human); compound 1.0 µM) of the same compound?
Answer: 82%

Question: What about the residual activity (CDK2 CCNA2 (human); compound 10.0 µM) of the same compound?
Answer: 65%

Question: And the residual activity (TTBK1 (human); compound 1.0 µM)?
Answer: 88%

Question: What about the residual activity (TTBK1 (human); compound 10.0 µM) of the same compound?
Answer: 91%

Question: And the residual activity (IKBKB (human))?
Answer: 82%

Question: What about the residual activity (EPHB4 (human); compound 1.0 µM) of the same compound?
Answer: 94%

Question: And the residual activity (EPHB4 (human); compound 10.0 µM)?
Answer: 113%

Question: And the residual activity (MARK4 (human); compound 1.0 µM)?
Answer: 82%

Question: And the residual activity (MARK4 (human); compound 10.0 µM)?
Answer: 72%

Question: What about the residual activity (MAPK13 (human); compound 1.0 µM) of the same compound?
Answer: 87%

Question: And the residual activity (MAPK13 (human); compound 10.0 µM)?
Answer: 86%

Question: What about the residual activity (BTK (human); compound 1.0 µM) of the same compound?
Answer: 83%

Question: And the residual activity (BTK (human); compound 10.0 µM)?
Answer: 88%

Question: What about the residual activity (PRKACA (human); compound 1.0 µM) of the same compound?
Answer: 85%

Question: And the residual activity (PRKACA (human); compound 10.0 µM)?
Answer: 94%

Question: What about the residual activity (WNK1 (human); compound 1.0 µM) of the same compound?
Answer: 62%

Question: And the residual activity (WNK1 (human); compound 10.0 µM)?
Answer: 99%

Question: And the residual activity (ABL1 (human); compound 1.0 µM)?
Answer: 84%

Question: What about the residual activity (ABL1 (human); compound 10.0 µM) of the same compound?
Answer: 86%

Question: And the residual activity (RPS6KA3 KD1 KD2 (human); compound 1.0 µM)?
Answer: 92%

Question: What about the residual activity (RPS6KA3 KD1 KD2 (human); compound 10.0 µM) of the same compound?
Answer: 65%

Question: And the residual activity (PIM2 (human); compound 1.0 µM)?
Answer: 94%

Question: And the residual activity (PIM2 (human); compound 10.0 µM)?
Answer: 97%

Question: And the residual activity (FLT1 (human))?
Answer: 65%

Question: And the residual activity (EPHB3 (human))?
Answer: 101%

Question: And the residual activity (TEK (human); compound 1.0 µM)?
Answer: 79%

Question: And the residual activity (TEK (human); compound 10.0 µM)?
Answer: 90%

Question: What about the residual activity (HIPK1 (human); compound 1.0 µM) of the same compound?
Answer: 77%

Question: What about the residual activity (HIPK1 (human); compound 10.0 µM) of the same compound?
Answer: 94%

Question: And the residual activity (STK3 (human); compound 1.0 µM)?
Answer: 85%

Question: And the residual activity (STK3 (human); compound 10.0 µM)?
Answer: 73%

Question: And the residual activity (MAPK8 (human); compound 1.0 µM)?
Answer: 89%

Question: What about the residual activity (MAPK8 (human); compound 10.0 µM) of the same compound?
Answer: 37%

Question: And the residual activity (TBK1 (human); compound 1.0 µM)?
Answer: 86%

Question: And the residual activity (TBK1 (human); compound 10.0 µM)?
Answer: 42%

Question: What about the residual activity ([1]; compound 1.0 µM) of the same compound?
Answer: 53%

Question: What about the residual activity ([1]; compound 10.0 µM) of the same compound?
Answer: 85%

Question: What about the residual activity (MAP4K3 (human)) of the same compound?
Answer: 94%

Question: And the residual activity (NTRK1 (human))?
Answer: 87%

Question: What about the residual activity (PDPK1 (human)) of the same compound?
Answer: 102%
